Data: US10072026B2, “Crystalline form of 3-((1R,3s,5S)-3-((7-((5-methyl-1H-pyrazol-3-yl)amino)-1,6-naphthyridin-5-yl)amino)-8-azabicyclo[3.2.1]octan-8-yl)propanenitrile” (priority 2015, dated 2018)
Where two headings read alike, the source gives them in different places.

Experiments:
[1] = test system: IL-4 induced STAT6 phosphorylation in THP-1 human monocytic cells; assay: Cellular JAK potency assay, THP-1
[2] = biological target: JAK1 (Homo sapiens (Human), UniProt P23458); assay: LanthaScreen JAK biochemical assay (JAK1)
[3] = IL-4 induced STAT6 phosphorylation, THP-1 cells
[4] = read-out: JAK 1 (pKi) (converted)
[5] = Homo sapiens, THP-1, read-out: THP-1 IL4 pIC50 (converted)
[6] = THP-1 cells, IL-4 induced STAT6 phosphorylation

Chain of JAK1 (P23458 whole entry): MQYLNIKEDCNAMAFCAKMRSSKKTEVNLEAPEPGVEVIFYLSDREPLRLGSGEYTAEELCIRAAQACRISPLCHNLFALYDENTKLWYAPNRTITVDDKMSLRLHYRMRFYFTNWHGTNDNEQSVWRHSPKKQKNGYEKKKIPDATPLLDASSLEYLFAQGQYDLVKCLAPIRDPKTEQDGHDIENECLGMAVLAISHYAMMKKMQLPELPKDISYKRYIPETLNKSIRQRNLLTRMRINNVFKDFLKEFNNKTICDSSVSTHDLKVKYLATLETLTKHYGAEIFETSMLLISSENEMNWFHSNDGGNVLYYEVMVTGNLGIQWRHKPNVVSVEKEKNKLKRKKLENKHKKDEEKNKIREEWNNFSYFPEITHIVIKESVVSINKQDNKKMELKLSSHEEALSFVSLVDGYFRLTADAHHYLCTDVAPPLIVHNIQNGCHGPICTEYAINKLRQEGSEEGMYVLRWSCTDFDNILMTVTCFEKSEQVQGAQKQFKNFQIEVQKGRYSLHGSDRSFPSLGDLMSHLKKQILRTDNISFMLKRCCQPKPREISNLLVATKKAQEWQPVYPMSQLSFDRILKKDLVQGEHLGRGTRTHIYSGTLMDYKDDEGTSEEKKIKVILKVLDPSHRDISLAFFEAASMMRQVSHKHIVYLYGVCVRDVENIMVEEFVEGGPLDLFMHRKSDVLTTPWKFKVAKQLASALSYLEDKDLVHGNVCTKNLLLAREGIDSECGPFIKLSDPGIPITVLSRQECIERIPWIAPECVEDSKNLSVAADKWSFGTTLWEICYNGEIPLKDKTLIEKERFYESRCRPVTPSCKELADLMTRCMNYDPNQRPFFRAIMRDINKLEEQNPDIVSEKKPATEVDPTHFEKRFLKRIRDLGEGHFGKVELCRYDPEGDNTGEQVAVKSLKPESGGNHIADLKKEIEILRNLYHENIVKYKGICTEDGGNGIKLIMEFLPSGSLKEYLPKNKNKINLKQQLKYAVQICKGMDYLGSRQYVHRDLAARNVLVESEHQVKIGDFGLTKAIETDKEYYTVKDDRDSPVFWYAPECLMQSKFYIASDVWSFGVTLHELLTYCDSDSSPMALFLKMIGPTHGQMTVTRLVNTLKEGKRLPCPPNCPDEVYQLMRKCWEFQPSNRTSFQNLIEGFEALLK

COC(=O)CN1[C@@H]2CC[C@H]1C[C@H](Nc1nc(Nc3cc(C)[nH]n3)cc3ncccc13)C2 [Example 1-1]
THP-1 IL4 pIC50 [1, 3]: C (C represents a pEC50 value<6.7 (EC50>200 nM))

COC(=O)CCN1[C@@H]2CC[C@H]1C[C@H](Nc1nc(Nc3cc(C)[nH]n3)cc3ncccc13)C2 [Example 1-2]
THP-1 IL4 pIC50 [1, 3]: C (C represents a pEC50 value<6.7 (EC50>200 nM))

COC(=O)CCCN1[C@@H]2CC[C@H]1C[C@H](Nc1nc(Nc3cc(C)[nH]n3)cc3ncccc13)C2 [Example 1-3]
THP-1 IL4 pIC50 [1, 3]: C (C represents a pEC50 value<6.7 (EC50>200 nM))

Cc1cc(Nc2cc3ncccc3c(N[C@@H]3C[C@H]4CC[C@@H](C3)N4CCCF)n2)n[nH]1 [Example 1-9]
JAK 1 (pKi) [2]: B (B represents a pKi value between 9 and 10 (Ki between 1 nM and 0.1 nM))
THP-1 IL4 pIC50 [1, 3]: C (C represents a pEC50 value<6.7 (EC50>200 nM))

Cc1cc(Nc2cc3ncccc3c(N[C@@H]3C[C@H]4CC[C@@H](C3)N4CC(=O)N[C@@H]3CCOC3=O)n2)n[nH]1 [Example 1-11]
THP-1 IL4 pIC50 [1, 3]: C (C represents a pEC50 value<6.7 (EC50>200 nM))

Cc1cc(Nc2cc3ncccc3c(N[C@@H]3C[C@H]4CC[C@@H](C3)N4CC(=O)N[C@H]3CCOC3=O)n2)n[nH]1 [Example 1-12]
THP-1 IL4 pIC50 [1, 3]: C (C represents a pEC50 value<6.7 (EC50>200 nM))

Cc1cc(Nc2cc3ncccc3c(N[C@@H]3C[C@H]4CC[C@@H](C3)N4CC(C)C)n2)n[nH]1 [Example 1-13]
JAK 1 (pKi) [2]: B (B represents a pKi value between 9 and 10 (Ki between 1 nM and 0.1 nM))
THP-1 IL4 pIC50 [1, 3]: A (A represents a pEC50 value≥7.5 (EC50≤32 nM))

Cc1cc(Nc2cc3ncccc3c(N[C@@H]3C[C@H]4CC[C@@H](C3)N4Cc3ccc(O)cc3)n2)n[nH]1 [Example 1-18]
Ki [2, 4]: 0.0001 to 0.001 µM
IC50 [1, 5]: > 0.2 µM

Cc1cc(Nc2cc3ncccc3c(N[C@@H]3C[C@H]4CC[C@@H](C3)N4Cc3cccc(O)c3)n2)n[nH]1 [Example 1-19]
IC50 [1, 5]: 0.0316 to 0.2 µM

Cc1cc(Nc2cc3ncccc3c(N[C@@H]3C[C@H]4CC[C@@H](C3)N4CC3CCC(=O)O3)n2)n[nH]1 (some centres unmarked) [Example 1-29]
THP-1 IL4 pIC50 [1, 3]: C (C represents a pEC50 value<6.7 (EC50>200 nM))

Cc1cc(Nc2cc3ncccc3c(N[C@@H]3C[C@H]4CC[C@@H](C3)N4CC3COC(=O)O3)n2)n[nH]1 (some centres unmarked) [Example 1-30]
IC50 [1, 5]: 0.0316 to 0.2 µM

COC(=O)CCCN1[C@@H]2CCC[C@H]1C[C@H](Nc1nc(Nc3cc(C)[nH]n3)cc3ncccc13)C2 [Example 1-34]
JAK 1 (pKi) [2]: B (B represents a pKi value between 9 and 10 (Ki between 1 nM and 0.1 nM))
THP-1 IL4 pIC50 [1, 3]: C (C represents a pEC50 value<6.7 (EC50>200 nM))

Cc1cc(Nc2cc3ncccc3c(N[C@@H]3C[C@H]4CCC[C@@H](C3)N4CC(=O)OC(C)C)n2)n[nH]1 [Example 1-35]
THP-1 IL4 pIC50 [1, 3]: A (A represents a pEC50 value≥7.5 (EC50≤32 nM))

Cc1cc(Nc2cc3ncccc3c(N[C@@H]3C[C@H]4CCC[C@@H](C3)N4CC(F)(F)F)n2)n[nH]1 [Example 1-45]
THP-1 IL4 pIC50 [1, 3]: B (B represents a pEC50 value between 6.7 and 7.5 (EC50 between 200 nM and 32 nM))

COCCCN1[C@@H]2CCC[C@H]1C[C@H](Nc1nc(Nc3cc(C)[nH]n3)cc3ncccc13)C2 [Example 1-46]
JAK 1 (pKi) [2]: B (B represents a pKi value between 9 and 10 (Ki between 1 nM and 0.1 nM))
THP-1 IL4 pIC50 [1, 3]: B (B represents a pEC50 value between 6.7 and 7.5 (EC50 between 200 nM and 32 nM))

Cc1cc(Nc2cc3ncccc3c(N[C@@H]3C[C@H]4CCC[C@@H](C3)N4Cc3cccc(O)c3)n2)n[nH]1 [Example 1-49]
THP-1 IL4 pIC50 [1, 3]: A (A represents a pEC50 value≥7.5 (EC50≤32 nM))

Cc1cc(Nc2cc3ncccc3c(N[C@@H]3C[C@H]4CCC[C@@H](C3)N4[C@H]3CCOC3=O)n2)n[nH]1 [Example 1-51]
THP-1 IL4 pIC50 [1, 3]: B (B represents a pEC50 value between 6.7 and 7.5 (EC50 between 200 nM and 32 nM))

Cc1cc(Nc2cc3ncccc3c(N[C@@H]3C[C@H]4CCC[C@@H](C3)N4[C@@H]3CCOC3=O)n2)n[nH]1 [Example 1-52]
THP-1 IL4 pIC50 [1, 3]: B (B represents a pEC50 value between 6.7 and 7.5 (EC50 between 200 nM and 32 nM))

CCOCC(=O)N1[C@@H]2CC[C@H]1C[C@H](Nc1nc(Nc3cc(C)[nH]n3)cc3ncccc13)C2 [Example 2-4]
THP-1 IL4 pIC50 [1, 3]: C (C represents a pEC50 value<6.7 (EC50>200 nM))

COC(=O)C1(C(=O)N2[C@@H]3CC[C@H]2C[C@H](Nc2nc(Nc4cc(C)[nH]n4)cc4ncccc24)C3)CC1 [Example 2-9]
IC50 [1, 5]: > 0.2 µM

Cc1cc(Nc2cc3ncccc3c(N[C@@H]3C[C@H]4CC[C@@H](C3)N4C(=O)OCC(C)C)n2)n[nH]1 [Example 3-3]
JAK 1 (pKi) [2]: B (B represents a pKi value between 9 and 10 (Ki between 1 nM and 0.1 nM))
THP-1 IL4 pIC50 [1, 3]: A (A represents a pEC50 value≥7.5 (EC50≤32 nM))

COCCOC(=O)N1[C@@H]2CC[C@H]1C[C@H](Nc1nc(Nc3cc(C)[nH]n3)cc3ncccc13)C2 [Example 3-5]
JAK 1 (pKi) [2]: B (B represents a pKi value between 9 and 10 (Ki between 1 nM and 0.1 nM))
THP-1 IL4 pIC50 [1, 3]: B (B represents a pEC50 value between 6.7 and 7.5 (EC50 between 200 nM and 32 nM))

Cc1cc(Nc2cc3ncccc3c(N[C@@H]3C[C@H]4CC[C@@H](C3)N4S(=O)(=O)C3(C)CC3)n2)n[nH]1 [Example 4-8]
IC50 [1, 5]: < 0.0316 µM

Cc1cc(Nc2cc3ncccc3c(N[C@@H]3C[C@H]4CC[C@@H](C3)N4S(=O)(=O)C3CN(CCC#N)C3)n2)n[nH]1 [Example 4-11]
Ki [2, 4]: 0.0001 to 0.001 µM
IC50 [1, 5]: > 0.2 µM

COCC1CCCN1S(=O)(=O)N1[C@@H]2CC[C@H]1C[C@H](Nc1nc(Nc3cc(C)[nH]n3)cc3ncccc13)C2 (some centres unmarked) [Example 4-12]
Ki [2]: 0.0001 to 0.001 µM
IC50 [1, 5]: 0.0316 to 0.2 µM

Cc1cc(Nc2cc3ncccc3c(N[C@@H]3C[C@H]4CC[C@@H](C3)N4S(=O)(=O)c3ccccn3)n2)n[nH]1 [Example 4-14]
IC50 [1, 5]: 0.0316 to 0.2 µM

Cc1cc(Nc2cc3ncccc3c(N[C@@H]3C[C@H]4CCC[C@@H](C3)N4S(C)(=O)=O)n2)n[nH]1 [Example 4-16]
THP-1 IL4 pIC50 [1, 3]: A (A represents a pEC50 value≥7.5 (EC50≤32 nM))

C=CCS(=O)(=O)N1[C@@H]2CCC[C@H]1C[C@H](Nc1nc(Nc3cc(C)[nH]n3)cc3ncccc13)C2 [Example 4-22]
THP-1 IL4 pIC50 [1, 3]: A (A represents a pEC50 value≥7.5 (EC50≤32 nM))

COc1ccc2c(N[C@@H]3C[C@H]4CC[C@@H](C3)N4CCCF)nc(Nc3cc(C)[nH]n3)cc2n1 [Example 5-5]
JAK 1 (pKi) [2]: B (B represents a pKi value between 9 and 10 (Ki between 1 nM and 0.1 nM))
THP-1 IL4 pIC50 [1, 3]: B (B represents a pEC50 value between 6.7 and 7.5 (EC50 between 200 nM and 32 nM))

Cc1cc(Nc2cc3nc(CN4CCOCC4)ccc3c(N[C@@H]3C[C@H]4CC[C@@H](C3)N4S(C)(=O)=O)n2)n[nH]1 [Example 5-15]
IC50 [1, 5]: 0.0316 to 0.2 µM

Cc1cc(Nc2cc3nc(CN4CCOCC4)ccc3c(N[C@@H]3C[C@H]4CC[C@@H](C3)N4CC(C)C)n2)n[nH]1 [Example 5-19]
JAK 1 (pKi) [2]: B (B represents a pKi value between 9 and 10 (Ki between 1 nM and 0.1 nM))
THP-1 IL4 pIC50 [1, 3]: B (B represents a pEC50 value between 6.7 and 7.5 (EC50 between 200 nM and 32 nM))

COCCS(=O)(=O)N1[C@@H]2CCC[C@H]1C[C@H](Nc1nc(Nc3cc(C)[nH]n3)cc3nc(CN4CCOCC4)ccc13)C2 [Example 5-24]
THP-1 IL4 pIC50 [1, 3]: B (B represents a pEC50 value between 6.7 and 7.5 (EC50 between 200 nM and 32 nM))

C=CCOC(=O)N1[C@@H]2CCC[C@H]1C[C@H](Nc1nc(Nc3cc(C)[nH]n3)cc3nc(CN4CCOCC4)ccc13)C2 [Example 5-25]
THP-1 IL4 pIC50 [1, 3]: B (B represents a pEC50 value between 6.7 and 7.5 (EC50 between 200 nM and 32 nM))

Cc1cc(Nc2cc3nc(CN4CCOCC4)ccc3c(N[C@@H]3C[C@H]4CCC[C@@H](C3)N4S(=O)(=O)N3CCC3)n2)n[nH]1 [Example 5-28]
THP-1 IL4 pIC50 [1, 3]: B (B represents a pEC50 value between 6.7 and 7.5 (EC50 between 200 nM and 32 nM))

CCC1(S(=O)(=O)N2[C@@H]3CC[C@H]2C[C@H](Nc2nc(Nc4cc(C)[nH]n4)cc4nc(CN5CCC(F)(F)CC5)ccc24)C3)CC1 [Example 5-32]
IC50 [1, 5]: 0.0316 to 0.2 µM

Cc1cc(Nc2cc3nc(CN4CCC(F)(F)CC4)ccc3c(N[C@@H]3C[C@H]4CC[C@@H](C3)N4CC(F)(F)F)n2)n[nH]1 [Example 5-33]
IC50 [1, 5]: 0.0316 to 0.2 µM

Cc1cc(Nc2cc3nc(CN4CCN(C)CC4)ccc3c(N[C@@H]3C[C@H]4CC[C@@H](C3)N4CC(F)(F)F)n2)n[nH]1 [Example 5-35]
IC50 [1, 5]: < 0.0316 µM

COc1cnc2cc(Nc3cc(C)[nH]n3)nc(N[C@@H]3C[C@H]4CCC[C@@H](C3)N4CCCF)c2c1 [Example 6-26]
JAK 1 (pKi) [2]: B (B represents a pKi value between 9 and 10 (Ki between 1 nM and 0.1 nM))
THP-1 IL4 pIC50 [1, 6]: B (B represents a pEC50 value between 6.7 and 7.5 (EC50 between 200 nM and 32 nM))

COC(=O)c1cnc2cc(Nc3cc(C)[nH]n3)nc(N[C@@H]3C[C@H]4CC[C@@H](C3)N4C(=O)CN(C)C)c2c1 [Example 6-39]
JAK 1 (pKi) [2]: B (B represents a pKi value between 9 and 10 (Ki between 1 nM and 0.1 nM))
THP-1 IL4 pIC50 [1, 6]: C (C represents a pEC50 value<6.7 (EC50>200 nM))

COC(=O)c1cnc2cc(Nc3cc(C)[nH]n3)nc(N[C@@H]3C[C@H]4CC[C@@H](C3)N4CCCF)c2c1 [Example 6-44]
THP-1 IL4 pIC50 [1, 6]: B (B represents a pEC50 value between 6.7 and 7.5 (EC50 between 200 nM and 32 nM))

Cc1cc(Nc2cc3ncc(S(C)(=O)=O)cc3c(N[C@@H]3C[C@H]4CC[C@@H](C3)N4CCCF)n2)n[nH]1 [Example 6-55]
THP-1 IL4 pIC50 [1, 6]: C (C represents a pEC50 value<6.7 (EC50>200 nM))

Cc1cc(Nc2cc3ncc(S(C)(=O)=O)cc3c(N[C@@H]3C[C@H]4CC[C@@H](C3)N4[C@@H]3CCOC3=O)n2)n[nH]1 [Example 6-57]
THP-1 IL4 pIC50 [1, 6]: C (C represents a pEC50 value<6.7 (EC50>200 nM))

Cc1cc(Nc2cc3ncc(S(C)(=O)=O)cc3c(N[C@@H]3C[C@H]4CC[C@@H](C3)N4[C@H]3CCOC3=O)n2)n[nH]1 [Example 6-58]
THP-1 IL4 pIC50 [1, 6]: C (C represents a pEC50 value<6.7 (EC50>200 nM))

COc1ccnc2cc(Nc3cc(C)[nH]n3)nc(N[C@@H]3C[C@H]4CC[C@@H](C3)N4C(=O)CN(C)C)c12 [Example 7-3]
THP-1 IL4 pIC50 [1, 6]: C (C represents a pEC50 value<6.7 (EC50>200 nM))

COc1ccnc2cc(Nc3cc(C)[nH]n3)nc(N[C@@H]3C[C@H]4CC[C@@H](C3)N4CCF)c12 [Example 7-7]
THP-1 IL4 pIC50 [1, 6]: B (B represents a pEC50 value between 6.7 and 7.5 (EC50 between 200 nM and 32 nM))
